Assay results reported in patent publication US20100209536A1, “Methods and Kits for Use in the Treatment and Prevention of Diseases or Conditions of the Immune System or Infectious Diseases” (The Brigham and Women's Hospital, Inc., priority 2006, published 2010).

Key:
[1] = tested on: any wheeze in the first 2 yrs; experiment: Project Viva antioxidant study: maternal intake and any wheeze in the first 2 yrs; type: in vivo, human; settings: for Any wheeze in the first 2 yrs, Univariate Model OR (95% CI) / Any wheeze in the first 2 yrs, Multivariable Model OR (95% CI): including supplements; for Association of total maternal intake with any wheeze in univariable models: total intakes
Text: (§1) Study subjects were enrolled in Project Viva, as described above. Recruitment and retention procedures have previously been published (Gillman et al., J. Pediatr. 144:240-245, 2004). We obtained information directly from participants and from medical records as detailed previously (Rifas-Shiman, Paediatr. Perinat. Epidemiol. 20:35-42, 2006). Data collected from interviews and questionnaires included demographics (infant gender, maternal marital status, and race), socioeconomic status (education and household income), and reproductive history (maternal gravidity, pre-pregnancy height and body mass index, and smoking). Questionnaires that inquired about infant health, feeding, and the home environment were administered when the child was 6 months, 1 year, and 2 years of age. Among 2,128 delivered infants in Project Viva, we excluded 228 participants because of missing first and second trimester diet assessment data and an additional 37 participants with a gestation of less than 34 completed weeks.
(§2) We assessed maternal diet using semi-quantitative food-frequency questionnaires (FFQ) validated for use during pregnancy (Fawzi et al., Ann. Epidemiol. 14:754-762, 2004), and used in several of our previous studies of maternal diet and offspring outcomes (Oken et al., Am. J. Epidemiol. 160:774-783, 2004; Huh et al., Int. J. Epidemiol. 34:378-384, 2005; Gillman et al., Circulation 110:1990-1995, 2004). As noted above, the FFQ used at the 1st visit reflected intakes in the 1st trimester; the time referent was “during this pregnancy,” that is from the date of the last menstrual period until the assessment, at an average of about 10 weeks gestation. To assess vitamin and supplement intake during the 1st trimester, we administered a separate interview that queried dose, duration, and brand/type of multivitamin, prescribed prenatal vitamins, and supplements. Also as noted above, the FFQ used at the 2nd visit (26 to 28 weeks of gestation) reflected intakes during the 2nd trimester; the time referent was “during the past 3 months.” The 2nd trimester instrument was the same as that for the 1st trimester except that we assessed use of vitamins/supplements as part of the self-completed FFQ.
(§3) To calculate intake of nutrients, we again used the Harvard nutrient composition database, which contains food composition values from the U.S. Department of Agriculture, supplemented by other data sources (U.S. Department of Agriculture ARS. USDA National Nutrient Database for Standard Reference, Release 14, 5R14; 2001). All nutrients were adjusted for total energy intake using the nutrient residuals method (Willett, Am. J. Clin. Nutr. 45:354-360, 1987). Mean nutrient intakes from the 1st and 2nd trimesters were used as the exposure in the analyses. If a participant only completed one FFQ, then nutrients calculated from that questionnaire were taken as the exposure of interest. One thousand one hundred and thirty-five (88.0%) of the 1,290 participants completed both FFQs, 96 (7.4%) completed the first trimester FFQ only, and 59 (4.6%) completed the second trimester FFQ only.
(§4) We ascertained the wheeze outcomes from questions from the First Year and Second Year Questionnaires: “since your child was born/since your child was […], has he/she ever had wheezing (or whistiling in the chest)?” “Any wheeze” was defined as a positive response to the question at either the first or second year questionnaire. “Recurrent wheeze” was defined as positive responses to the questions in both the first and second year questionnaires. […] “Respiratory infections” was defined as positive responses to one of three questions: “since your child was born/12 months old, have you been told by a health care professional (such as a doctor, physician assistant, or nurse practitioner) that your child has: (a) bronchiolitis; (b) pneumonia; (c) bronchitis, croup, or any other respiratory infection?” on either the first or second year questionnaires. […]

[2] = tested on: recurrent wheeze in the first 2 yrs; experiment: Project Viva antioxidant study: maternal intake and recurrent wheeze in the first 2 yrs; type: in vivo, human; settings: including supplements
Text: as §1, §2, §3, §4

[3] = 2nd vs 1st (lowest) quartile of maternal intake, calorie adjusted, n = 1,161
[4] = 2nd vs 1st (lowest) quartile of maternal intake
[5] = 3rd vs 1st (lowest) quartile of maternal intake
[6] = 4th (highest) vs 1st (lowest) quartile of maternal intake
[7] = 2nd vs 1st (lowest) quartile of maternal intake, n = 1,038

| Compound | Any wheeze in the first 2 yrs, Univariate Model OR (95% CI) [1, 3] | Any wheeze in the first 2 yrs, Multivariable Model OR (95% CI) [1, 4] | Any wheeze in the first 2 yrs, Multivariable Model OR (95% CI) [1, 5] | Any wheeze in the first 2 yrs, Univariate Model OR (95% CI) [1, 5] | Any wheeze in the first 2 yrs, Multivariable Model OR (95% CI) [1, 6] | Any wheeze in the first 2 yrs, Univariate Model OR (95% CI) [1, 6] | Recurrent wheeze in the first 2 yrs, Multivariable Model OR (95% CI) [2, 4] | Recurrent wheeze in the first 2 yrs, Univariate Model OR (95% CI) [2, 7] | Recurrent wheeze in the first 2 yrs, Multivariable Model OR (95% CI) [2, 5] | Recurrent wheeze in the first 2 yrs, Univariate Model OR (95% CI) [2, 5] | Recurrent wheeze in the first 2 yrs, Multivariable Model OR (95% CI) [2, 6] | Recurrent wheeze in the first 2 yrs, Univariate Model OR (95% CI) [2, 6] | Association of total maternal intake with any wheeze in univariable models [1] |
| --- | --- | --- | --- | --- | --- | --- | --- | --- | --- | --- | --- | --- | --- |
| CC1=C(/C=C/C(C)=C/C=C/C(C)=C/C=C/C=C(C)/C=C/C=C(C)/C=C/C2=C(C)C[C@@H](O)CC2(C)C)C(C)(C)CCC1 [β Cryptoxanthin] | 0.80 (0.57, 1.13) | 0.82 (0.57, 1.18) | 0.81 (0.56, 1.18) | 0.72 (0.51, 1.02) | 0.97 (0.67, 1.41) | 0.92 (0.66, 1.30) | 1.33 (0.78, 2.28) | 1.36 (0.82, 2.24) | 0.97 (0.55, 1.72) | 0.95 (0.56, 1.63) | 1.28 (0.73, 2.26) | 1.05 (0.62, 1.78) |  |
| CC1=C(/C=C/C(C)=C/C=C/C(C)=C/C=C/C=C(C)/C=C/C=C(C)/C=C/C2=C(C)CCCC2(C)C)C(C)(C)CCC1 [β Carotene, β-carotene] | 1.01 (0.71, 1.41) | 1.28 (0.88, 1.88) | 1.21 (0.82, 1.77) | 0.85 (0.60, 1.20) | 0.98 (0.66, 1.47) | 0.71 (0.50, 1.02) | 1.24 (0.72, 2.13) | 0.85 (0.52, 1.37) | 1.23 (0.72, 2.13) | 0.76 (0.46, 1.24) | 1.01 (0.56, 1.81) | 0.58 (0.34, 0.97)^5 | associated with lower risks |
| [Cu] [Copper, copper] | 0.78 (0.55, 1.10) | 0.93 (0.64, 1.35) | 0.91 (0.62, 1.34) | 0.71 (0.50, 1.01) | 0.90 (0.61, 1.33) | 0.69 (0.49, 0.99)^5 | 0.75 (0.43, 1.30) | 0.63 (0.38, 1.03) | 1.02 (0.60, 1.75) | 0.67 (0.41, 1.09) | 0.90 (0.51, 1.59) | 0.57 (0.34, 0.95)^5 | associated with lower risks |
| CC1=CCCC(C)(C)C1/C=C/C(C)=C/C=C/C(C)=C/C=C/C=C(C)/C=C/C=C(C)/C=C/C1=C(C)CCCC1(C)C (stereo not drawn) [α Carotene, α-carotene] | 0.77 (0.54, 1.09) | 0.87 (0.60, 1.26) | 1.00 (0.69, 1.45) | 0.82 (0.58, 1.16) | 0.92 (0.63, 1.34) | 0.75 (0.53, 1.06) | 1.22 (0.71, 2.09) | 0.98 (0.60, 1.60) | 1.01 (0.57, 1.80) | 0.74 (0.43, 1.25) | 1.26 (0.72, 2.21) | 0.88 (0.53, 1.45) |  |
